Source: PubChem BioAssay AID248 (DTP/NCI, 2004)
Values joined by “and” are separate entries in the source; they are usually repeats but may differ in a detail not shown here. Equal entries are not always repeated. Inconclusive results and toxic doses are left out. Cut-off read from the data, not from the text of the source: active = T/C of 150% or more; inactive = T/C below 125%.

Tested on: L1210 leukemia ip in BDF1 mice, survival T/C
Experiment: NCI In Vivo Anticancer Drug Screen. Data for tumor model L1210 Leukemia (intraperitoneal) in B6D2F1 (BDF1) mice
Details: endpoint: mean survival time, higher = longer survival
Outline: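 Value reflects the ratio of survival in compound-treated mice to survival in vehicle-treated controls, with both groups carrying the same transplanted tumor.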

[1] = dose: 100.0 mg/kg/injection, schedule: Q01DX001 (ip), vehicle: carboxymethylcellulose (CMC)
[2] = dose: 100.0 mg/kg/injection, schedule: Q04DX003 (ip), vehicle: Klucel (hydroxypropylcellulose) (HPC)
[3] = dose: 200.0 mg/kg/injection, schedule: Q04DX003 (ip), vehicle: Klucel (hydroxypropylcellulose) (HPC)

Measured: T/C

CC1CN1CCS(=O)(=O)CCN1CC1C (stereo not given)
inactive: dose: 0.3 mg/kg/injection, schedule: Q01DX015 (ip), vehicle: carboxymethylcellulose (CMC) 95 % of control | dose: 0.6 mg/kg/injection, schedule: Q01DX015 (ip), vehicle: carboxymethylcellulose (CMC) 101 % of control | dose: 1.2 mg/kg/injection, schedule: Q01DX015 (ip), vehicle: carboxymethylcellulose (CMC) 109 % of control | dose: 1.25 mg/kg/injection, schedule: Q01DX015 (ip), vehicle: carboxymethylcellulose (CMC) 101 % of control | dose: 2.5 mg/kg/injection, schedule: Q01DX015 (ip), vehicle: carboxymethylcellulose (CMC) 103 % of control and 110 % of control | dose: 3.1 mg/kg/injection, schedule: Q01DX015 (ip), vehicle: saline 102 % of control | dose: 4.6 mg/kg/injection, schedule: Q01DX015 (ip), vehicle: saline 102 % of control | dose: 5.0 mg/kg/injection, schedule: Q01DX015 (ip), vehicle: carboxymethylcellulose (CMC) 101 % of control | dose: 7.0 mg/kg/injection, schedule: Q01DX015 (ip), vehicle: saline 94 % of control | dose: 10.0 mg/kg/injection, schedule: Q01DX015 (ip), vehicle: carboxymethylcellulose (CMC) 100 % of control and 112 % of control | dose: 10.0 mg/kg/injection, schedule: Q01DX015 (ip), vehicle: saline 100 % of control | dose: 20.0 mg/kg/injection, schedule: Q01DX015 (ip), vehicle: carboxymethylcellulose (CMC) 108 % of control | dose: 40.0 mg/kg/injection, schedule: Q01DX015 (ip), vehicle: carboxymethylcellulose (CMC) 114 % of control

Cc1cc(-c2ccccc2)c2ccc3c(-c4ccccc4)cc(C)nc3c2n1
inactive: dose: 0.5 mg/kg/injection, schedule: Q01DX001 (ip), vehicle: carboxymethylcellulose (CMC) 105 % of control | dose: 1.0 mg/kg/injection, schedule: Q01DX001 (ip), vehicle: carboxymethylcellulose (CMC) 112 % of control | dose: 2.0 mg/kg/injection, schedule: Q01DX001 (ip), vehicle: carboxymethylcellulose (CMC) 95 % of control | dose: 4.0 mg/kg/injection, schedule: Q01DX001 (ip), vehicle: carboxymethylcellulose (CMC) 97 % of control | dose: 8.0 mg/kg/injection, schedule: Q01DX001 (ip), vehicle: carboxymethylcellulose (CMC) 100 % of control | dose: 10.0 mg/kg/injection, schedule: Q01DX001 (ip), vehicle: carboxymethylcellulose (CMC) 100 % of control | dose: 20.0 mg/kg/injection, schedule: Q01DX001 (ip), vehicle: carboxymethylcellulose (CMC) 95 % of control | dose: 80.0 mg/kg/injection, schedule: Q01DX001 (ip), vehicle: carboxymethylcellulose (CMC) 95 % of control | [1] 97 % of control

O=C(c1ccccc1)C(O)(CC(c1ccccc1)[P+](c1ccccc1)(c1ccccc1)c1ccccc1)c1ccccc1 (stereo not given)
inactive: dose: 1.75 mg/kg/injection, schedule: Q01DX009 (ip), vehicle: saline 93 % of control | dose: 3.5 mg/kg/injection, schedule: Q01DX009 (ip), vehicle: saline 93 % of control | dose: 6.25 mg/kg/injection, schedule: Q01DX009 (ip), vehicle: Klucel (hydroxypropylcellulose) (HPC) 102 % of control | dose: 12.5 mg/kg/injection, schedule: Q01DX009 (ip), vehicle: Klucel (hydroxypropylcellulose) (HPC) 107 % of control | dose: 400.0 mg/kg/injection, schedule: Q01DX001 (ip), vehicle: saline with Tween-80 87 % of control

CC1(C)OC2C(CO)OC(n3cnc4c(N)ncnc43)C2O1 (stereo not given)
inactive: dose: 25.0 mg/kg/injection, schedule: Q01DX009 (ip), vehicle: Klucel (hydroxypropylcellulose) (HPC) 103 % of control | dose: 50.0 mg/kg/injection, schedule: Q01DX009 (ip), vehicle: Klucel (hydroxypropylcellulose) (HPC) 98 % of control | dose: 100.0 mg/kg/injection, schedule: Q01DX009 (ip), vehicle: Klucel (hydroxypropylcellulose) (HPC) 100 % of control | [2] 103 % of control | [3] 103 % of control

OCC1OC(n2cc(Br)c3c(Cl)ncnc32)C(O)C1O (stereo not given)
inactive: dose: 50.0 mg/kg/injection, schedule: Q01DX001 (ip), vehicle: carboxymethylcellulose (CMC) 117 % of control | [1] 87 % of control | dose: 200.0 mg/kg/injection, schedule: Q01DX001 (ip), vehicle: carboxymethylcellulose (CMC) 93 % of control | dose: 400.0 mg/kg/injection, schedule: Q01DX001 (ip), vehicle: carboxymethylcellulose (CMC) 112 % of control

Cc1nonc1C(=O)N(C)C
inactive: dose: 25.0 mg/kg/injection, schedule: Q04DX002 (ip), vehicle: saline 98 % of control | dose: 50.0 mg/kg/injection, schedule: Q04DX002 (ip), vehicle: saline 102 % of control | dose: 100.0 mg/kg/injection, schedule: Q04DX002 (ip), vehicle: saline 102 % of control

CCCCNC(=O)C(C)S(=O)(=O)c1ccc(N)cc1 (stereo not given)
inactive: dose: 100.0 mg/kg/injection, schedule: Q04DX003 (ip), vehicle: saline with Tween-80 98 % of control | dose: 200.0 mg/kg/injection, schedule: Q04DX003 (ip), vehicle: saline with Tween-80 96 % of control | dose: 400.0 mg/kg/injection, schedule: Q04DX003 (ip), vehicle: saline with Tween-80 102 % of control

COc1ccc(C(=O)/C=C/c2ccc(C(C)C)cc2)cc1
inactive: dose: 75.0 mg/kg/injection, schedule: Q04DX003 (ip), vehicle: saline 94 % of control | dose: 150.0 mg/kg/injection, schedule: Q04DX003 (ip), vehicle: saline 100 % of control | dose: 300.0 mg/kg/injection, schedule: Q04DX003 (ip), vehicle: saline 89 % of control

COc1ccc2c(c1C)CCC1(C(=O)O)CC(C)C(O)CC21 (stereo not given)
inactive: dose: 100.0 mg/kg/injection, schedule: Q01DX009 (ip), vehicle: saline sonified 98 % of control | dose: 200.0 mg/kg/injection, schedule: Q01DX009 (ip), vehicle: saline sonified 96 % of control | dose: 400.0 mg/kg/injection, schedule: Q01DX009 (ip), vehicle: saline sonified 96 % of control

O/C(=C/C(=S)S)c1ccco1
inactive: dose: 25.0 mg/kg/injection, schedule: Q01DX009 (ip), vehicle: water 87 % of control | dose: 50.0 mg/kg/injection, schedule: Q01DX009 (ip), vehicle: water 93 % of control | dose: 100.0 mg/kg/injection, schedule: Q01DX009 (ip), vehicle: water 88 % of control | dose: 200.0 mg/kg/injection, schedule: Q01DX009 (ip), vehicle: water 90 % of control | dose: 400.0 mg/kg/injection, schedule: Q01DX009 (ip), vehicle: water 93 % of control

S=P(c1ccccc1)(N1CC1)N1CC1
inactive: dose: 25.0 mg/kg/injection, schedule: Q04DX002 (ip), vehicle: saline with Tween-80 110 % of control | dose: 50.0 mg/kg/injection, schedule: Q01DX Z (ip), vehicle: saline 124 % of control | dose: 50.0 mg/kg/injection, schedule: Q04DX002 (ip), vehicle: saline with Tween-80 103 % of control | dose: 100.0 mg/kg/injection, schedule: Q01DX Z (ip), vehicle: saline 115 % of control | dose: 100.0 mg/kg/injection, schedule: Q04DX002 (ip), vehicle: saline with Tween-80 115 % of control and 116 % of control | dose: 200.0 mg/kg/injection, schedule: Q04DX002 (ip), vehicle: saline with Tween-80 92 % of control

Cc1nc2ncn(C3OC(CO)C(O)C3O)c2nc1C (stereo not given)
inactive: dose: 100.0 mg/kg/injection, schedule: Q01DX005 (ip), vehicle: saline 95 % of control | dose: 200.0 mg/kg/injection, schedule: Q01DX005 (ip), vehicle: saline 90 % of control

C[N+](C)(C)C(=O)c1ccccc1
inactive: dose: 50.0 mg/kg/injection, schedule: Q01DX001 (ip), vehicle: saline 104 % of control | dose: 100.0 mg/kg/injection, schedule: Q01DX001 (ip), vehicle: saline 101 % of control

CCCCCCCCCCCCCCCC(=O)c1ccccc1
inactive: dose: 100.0 mg/kg/injection, schedule: Q01DX001 (ip), vehicle: Klucel (hydroxypropylcellulose) (HPC) 106 % of control | dose: 200.0 mg/kg/injection, schedule: Q01DX001 (ip), vehicle: Klucel (hydroxypropylcellulose) (HPC) 103 % of control | dose: 400.0 mg/kg/injection, schedule: Q01DX001 (ip), vehicle: Klucel (hydroxypropylcellulose) (HPC) 88 % of control

C[Se]c1ncnc2c(C3OC(CO)C(O)C3O)[nH]nc12 (stereo not given)
inactive: dose: 3.12 mg/kg/injection, schedule: Q01DX005 (ip), vehicle: saline 106 % of control | dose: 3.12 mg/kg/injection, schedule: Q01DX009 (ip), vehicle: saline 112 % of control | dose: 6.25 mg/kg/injection, schedule: Q01DX005 (ip), vehicle: saline 109 % of control | dose: 6.25 mg/kg/injection, schedule: Q01DX009 (ip), vehicle: saline 94 % of control | dose: 12.5 mg/kg/injection, schedule: Q01DX005 (ip), vehicle: saline 104 % of control | dose: 12.5 mg/kg/injection, schedule: Q01DX009 (ip), vehicle: saline 91 % of control

CCCN(CCC)N=Nc1ccccc1-c1nc(N)nc(N)n1
inactive: [2] 101 % of control | [3] 119 % of control | dose: 400.0 mg/kg/injection, schedule: Q04DX003 (ip), vehicle: Klucel (hydroxypropylcellulose) (HPC) 109 % of control
